# Measured values published in ChEMBL document CHEMBL1152465, “Comparative evaluation of the inhibitory activities of a series of pyrimidinedione congeners that inhibit human immunodeficiency virus types 1 and 2” (Antimicrob Agents Chemother, 2008).
# Calls of active or inactive are those of the source.
# Key:
# [1] = molecular target: Human immunodeficiency virus type 1 reverse transcriptase (Human immunodeficiency virus 1, UniProt Q72547, K103N); assay: Inhibition of HIV1 reverse transcriptase K103N mutant assessed as 32P-labeled GMP incorporation into nascent DNA strand
# [2] = tested on: Human immunodeficiency virus 2; assay: Antiviral activity against HIV2 assessed as inhibition of viral replication treated at time points after viral entry into host cells; type: functional, organism-based
# [3] = tested on: Human immunodeficiency virus 2; assay: Antiviral activity against HIV2 assessed as inhibition of viral single round replication at early time point; type: functional, organism-based
# [4] = Therapeutic index, ratio of TC50 human HeLa cells expressing CD4-LTR to EC50 for HIV1 entry inhibition in human HeLa cells expressing CD4-LTR; type: cell-based; settings: read-out: TI
# [5] = Therapeutic index, ratio of TC50 for human CEM-SS cells to EC50 for HIV1 RF infected in human CEM-SS cells; type: cell-based; settings: read-out: TI
# [6] = tested on: Human immunodeficiency virus 1; assay: Antiviral activity against HIV1 RF infected in human CEM-SS cells assessed as inhibition of virus-induced cytopathic effect by XTT assay; type: functional, organism-based; settings: Human immunodeficiency virus 1, RF
# [7] = Cytotoxicity against human HeLa cells expressing CD4-LTR by XTT assay; type: cell-based; settings: read-out: TC50 (the source's name)
# [8] = tested on: Human immunodeficiency virus 2; assay: Antiviral activity against HIV2 ROD infected in human CEM-SS cells assessed as inhibition of virus-induced cytopathic effect by XTT assay; type: functional, organism-based, ISOLATE ROD
# [9] = tested on: Human immunodeficiency virus 1; assay: Antiviral activity against HIV1 infected in human CEM-SS cells assessed as inhibition of viral replication and virus-induced cytopathic effect by dose-response curve analysis; type: functional; settings: Human immunodeficiency virus 1, CEM-SS
# [10] = tested on: Human immunodeficiency virus 2; assay: Inhibition of HIV2 reverse transcriptase
# [11] = Cytotoxicity against human CEM-SS cells by XTT assay; type: cell-based; settings: read-out: TC50 (the source's name)
# [12] = tested on: Human immunodeficiency virus 1; assay: Antiviral activity against HIV1 infected in human HeLa cells expressing CD4-LTR assessed as inhibition of viral entry-related beta galactosidase expression treated for 2 hrs followed by drug wash out measured after 48 hrs by MAGI assay; type: functional, organism-based; settings: Human immunodeficiency virus 1, HeLa
# [13] = molecular target: Human immunodeficiency virus type 1 reverse transcriptase (Human immunodeficiency virus 1, UniProt Q72547); assay: Inhibition of wild type HIV1 reverse transcriptase assessed as 32P-labeled GMP incorporation into nascent DNA strand
# [14] = Therapeutic index, ratio of TC50 for human CEM-SS cells to EC50 for HIV2 ROD infected in human CEM-SS cells; type: cell-based; settings: for selectivity ratio: CEM-SS cells, read-out: TI; for TI: cem-ss
# [15] = tested on: Human immunodeficiency virus 2; assay: Inhibition of HIV2 reverse transcriptase assessed as 32P-labeled GMP incorporation into nascent DNA strand at highest concentration
# [16] = Human immunodeficiency virus 2, ISOLATE ROD, CEM-SS, read-out: EC50
SMILES,IC50 [1] [µM],Activity [2],Activity [3],selectivity ratio [4],selectivity ratio [5],EC50 [6] [µM],CC50 [7] [µM],"EC50 [8, 16] [µM]",EC99 [9] [µM],Activity [10],CC50 [11] [µM],EC50 [12] [µM],IC50 [13] [µM],selectivity ratio [14],Activity [15],EC50 ([8]; cem-ss),TI [14]
Cc1cc(C)cc(Sc2c(C(C)C)c(=O)[nH]c(=O)n2Cc2ccccc2)c1,1.66,inactive,Active,2340,165000,0.0012,192,0.2,1,inactive,192,0.08,0.137,1220,inactive,,
CCc1c(Sc2cc(C)cc(C)c2)n(CC2=CCCC2)c(=O)[nH]c1=O,66.8,inactive,Active,104000,15800,0.056,887,2,1,inactive,887,0.009,0.138,451,inactive,,
CC(C)c1c(Oc2ccccc2)n(CC2CC=CC2)c(=O)[nH]c1=O,> 306,inactive,Active,4370,55200,0.02,1120,30.7,1,inactive,1100,0.26,4.91,37.1,inactive,,
Cc1cc(C)cc(Oc2c(C(C)C)c(=O)[nH]c(=O)n2CCC2=CCCC2)c1,176,inactive,Active,6,90,0.19,17.4,,1,inactive,17.1,2.7,1.54,,inactive,Not Active,Not Active
CCc1c(Oc2cc(C)cc(C)c2)n(CC2=CCCC2)c(=O)[nH]c1=O,0.22,inactive,Active,7280,4080,0.016,62.9,1.3,1,inactive,62.9,0.009,0.122,47.6,inactive,,
CCc1c(Sc2cc(C)cc(C)c2)n(CCC2=CCCC2)c(=O)[nH]c1=O,18.3,inactive,Active,4400,528,0.27,143,19.2,1,inactive,143,0.03,2.16,7.4,inactive,,
Cc1cc(C)cc(Sc2c(C(C)C)c(=O)[nH]c(=O)n2CC2CC2)c1,1.47,inactive,Active,1180,37600,0.0003,10.3,0.5,1,inactive,7.8,0.009,0.003,16.9,inactive,,
CC(C)c1c(Sc2ccccc2)n(CC2CC=CC2)c(=O)[nH]c1=O,> 292,inactive,Active,22,1300,0.028,25.9,,1,inactive,15.5,1.19,0.244,,inactive,Not Active,Not Active
Cc1cc(C)cc(Oc2c(C(C)C)c(=O)[nH]c(=O)n2CC2CC=CC2)c1,1.9,inactive,Active,2340,12900,0.015,200,18.2,1,inactive,200,0.09,0.256,11,inactive,,
CCc1c(Sc2cc(C)cc(C)c2)n(CCC2CCCC2)c(=O)[nH]c1=O,36.8,inactive,Active,60,154,0.18,29,26.9,1,inactive,29,0.48,2.19,1.1,inactive,,
CCc1c(Oc2cc(C)cc(C)c2)n(CCC2=CCCC2)c(=O)[nH]c1=O,247,inactive,Active,424,2600,0.42,1110,28.2,1,inactive,1100,2.62,10.3,> 39.7,inactive,,
Cc1cc(C)cc(C(=O)c2c(C(C)C)c(=O)[nH]c(=O)n2CCC2C=CCC2)c1 (stereo not given),5.5,inactive,Active,341,8940,0.0026,18.3,0.2,1,inactive,13.7,0.05,0.023,65,inactive,,
Cc1cc(C)cc(C(=O)c2c(C(C)C)c(=O)[nH]c(=O)n2CC2CCC2)c1,1.81,inactive,Active,606,2870,0.012,34.2,0.4,1,inactive,34.2,0.06,0.068,86.4,inactive,,
CCc1c(C(=O)c2cc(C)cc(C)c2)n(CC2CCC2)c(=O)[nH]c1=O,4.38,inactive,Active,14500,60700,0.014,850,4.5,1,inactive,850,0.06,2.4,190,inactive,,
CCc1c(Oc2cc(C)cc(C)c2)n(CC2CCCC2)c(=O)[nH]c1=O,0.272,inactive,Active,89,1450,0.015,20.9,2.9,1,inactive,20.2,0.23,0.137,7,inactive,,
Cc1cc(C)cc(C(=O)c2c(C(C)C)c(=O)[nH]c(=O)n2Cc2ccccc2)c1,1.4,inactive,Active,726,840,0.027,20.1,0.1,1,inactive,17.8,0.03,0.011,223,inactive,,
Cc1cc(C)cc(Oc2c(C(C)C)c(=O)[nH]c(=O)n2CC2CCCCC2)c1,11.9,inactive,Active,41,11400,0.0049,34.4,1.6,1,inactive,13.2,0.84,0.143,8.4,inactive,,
Cc1cc(C)cc(Oc2c(C(C)C)c(=O)[nH]c(=O)n2CCC2CCCC2)c1,16.2,inactive,Active,675,145,0.05,12.7,,1,inactive,7.8,0.02,0.234,,inactive,Not Active,Not Active
